For 26 compounds, EC50 results are on record in patent publication US8658697B2 (priority 2004, dated 2014).

Common to all, as to assay: microbe, parasite or virus in culture
Assay [1] concerns Tacaribe virus (TRVL 11573). It is filed as cell-based. The following applies: Mammarenavirus tacaribeense, Vero, read-out: Tacaribe EC50.
The test system of assay [2] is Pichinde pseudotyped virus. It is filed as cell-based. The following applies: read-out: EC50 vs. pseudotyped virus (μM) Pichinde.
The test system of a further assay is Candid-1 vaccine virus. The assay is classed as cell-based, Junin virus (vaccine strain). The following applies: Mammarenavirus juninense, Vero, 168 h, read-out: Candid 1 EC50.
Assay [3] concerns Machupo pseudotyped virus. The assay is classed as cell-based. Conditions: Mammarenavirus machupoense, read-out: EC50 vs. pseudotyped virus (μM) Machupo.
Another assay has as its system VSV pseudotyped virus. The assay is classed as cell-based. The following applies: Vesicular stomatitis virus, read-out: EC50 vs. pseudotyped virus (μM) VSV.
In assay [4] the test system is Guanarito pseudotyped virus. It is filed as cell-based. Conditions: Mammarenavirus guanaritoense, read-out: EC50 vs. pseudotyped virus (μM) Guanarito.
In a further assay the test system is Tacaribe virus. The assay is classed as cell-based. Conditions: Mammarenavirus tacaribeense, Vero, 168 h, read-out: Tacaribe EC50.
The test system of assay [5] is Tacaribe pseudotyped virus. The assay is classed as cell-based. Conditions: Mammarenavirus tacaribeense, read-out: EC50 vs. pseudotyped virus (μM) Tacaribe.

In general, EC50 refers to the concentration that produces a half-maximal response.

Molecules are shown by their SMILES. A value given as a limit tells only on which side of the number the result lay.

Consider `CC(NC(=O)Nc1ccc(Cl)cc1)(C(F)(F)F)C(F)(F)F` [Example 85, 1-(4-Chlorophenyl)-3-(2,2,2-trifluoro-1-methyl-1-trifluoromethylethyl)-urea], for which, in assay [1], the EC50 was above 5000 nM.

Turning to `Cc1cccc(NC(=O)NC(C)(C(F)(F)F)C(F)(F)F)c1` [Example 86, 1-(3-Methylphenyl)-3-(2,2,2-trifluoro-1-methyl-1-trifluoromethylethyl)-urea], the EC50 in assay [1] is above 5000 nM.

As to `CC(NC(=O)Nc1ccc(S(N)(=O)=O)cc1)(C(F)(F)F)C(F)(F)F` [Example 87, 4-[3-(1,1-Bis-trifluoromethylethyl)-ureido]benzenesulfonamide], in assay [1], the EC50 is above 5000 nM.

Turning to `CC(NC(=O)Nc1c(Br)cccc1Br)(C(F)(F)F)C(F)(F)F` [Example 88, 1-(2,6-Dibromophenyl)-3-(2,2,2-trifluoro-1-methyl-1-trifluoromethylethyl)-urea], the EC50 in assay [1] is above 5000 nM.

For `Cc1ccccc1NC(=O)NC(C)(C(F)(F)F)C(F)(F)F` [Example 89, 1-(2-Methylphenyl)-3-(2,2,2-trifluoro-1-methyl-1-trifluoromethylethyl)-urea], the EC50 in assay [1] was above 5000 nM.

With `Cc1ccc(NC(=O)NC(C)(C(F)(F)F)C(F)(F)F)cc1` [Example 90, 1-(4-Methylphenyl)-3-(2,2,2-trifluoro-1-methyl-1-trifluoromethylethyl)-urea], the EC50 in assay [1] is above 5000 nM.

Turning to `CC(NC(=O)N1CCCC1)(C(F)(F)F)C(F)(F)F` [Example 91, 1-Pyrrolidinyl-1-(2,2,2-trifluoro-1-methyl-1-trifluoromethylethyl)-carboxamide], the EC50 in assay [1] is above 5000 nM.

With `CC(NC(=O)Nc1ccc(F)cc1)(C(F)(F)F)C(F)(F)F` [Example 92, 1-(4-Fluorophenyl)-3-(2,2,2-trifluoro-1-methyl-1-trifluoromethylethyl)-urea], the EC50 in assay [1] was above 5000 nM.

`CC(NC(=O)Nc1ccc(Br)cc1Br)(C(F)(F)F)C(F)(F)F` [Example 93, 1-(2,4-Dibromophenyl)-3-(2,2,2-trifluoro-1-methyl-1-trifluoromethylethyl)-urea]: the EC50 in assay [1] is above 5000 nM.

Take `CC(NC(=O)N1CCCCCC1)(C(F)(F)F)C(F)(F)F` [Example 94, Azepane-1-carboxylic acid (2,2,2-trifluoro-1-methyl-1-trifluoromethylethyl)-amide]: the EC50 in assay [1] was above 5000 nM.

Regarding `CC(NC(=O)Nc1ccc(Br)cc1OC(F)(F)F)(C(F)(F)F)C(F)(F)F` [Example 95, 1-(4-Bromo-2-trifluoromethoxyphenyl)-3-(2,2,2-trifluoro-1-methyl-1-trifluoromethylethyl)-urea], the EC50 in assay [1] is above 5000 nM.

In the case of `CC(NC(=O)Nc1ccccc1OC(F)(F)F)(C(F)(F)F)C(F)(F)F` [Example 96, 1-(2-Trifluoromethoxyphenyl)-3-(2,2,2-trifluoro-1-methyl-1-trifluoromethylethyl)-urea], in assay [1], the EC50 was above 5000 nM.

Turning to `COc1ccccc1NC(=O)NC(C)(C(F)(F)F)C(F)(F)F` [Example 98, 1-(2-Methoxyphenyl)-3-(2,2,2-trifluoro-1-methyl-1-trifluoromethylethyl)-urea], the EC50 in assay [1] is above 5000 nM.

Take `CCC(NC(=O)NNC(=O)c1cc(OCC(F)(F)F)ccc1OCC(F)(F)F)(C(F)(F)F)C(F)(F)F` [Example 99, 2-[2,5-bis(2,2,2-trifluoroethoxy)benzoyl]-N-[1,1-bis(trifluoromethyl)propyl]hydrazinecarboxamide]: the EC50 in assay [2] is 1 to 5 µM; in the assay on Candid-1 vaccine virus it was above 5000 nM; in assay [3] it was 0.5 to 1 µM; in the assay on VSV pseudotyped virus it was above 5 µM; in assay [4] it was 1 to 5 µM; in the assay on Tacaribe virus, below 500 nM. Besides, the EC50 in assay [5] was below 0.5 µM.

Turning to `CCC(NC(=O)NNC(=O)c1ccc(C(C)(C)C)cc1)(C(F)(F)F)C(F)(F)F` [Example 100, N-[1,1-bis(trifluoromethyl)propyl]-2-(4-tert-butylbenzoyl)hydrazinecarboxamide], the concentration giving a half-maximal response (EC50) in assay [2] is 1 to 5 µM; with Candid-1 vaccine virus, 1000 to 5000 nM; in assay [3], below 0.5 µM; with VSV pseudotyped virus, above 5 µM; in assay [4], below 0.5 µM; with Tacaribe virus, below 500 nM. Moreover, in assay [5], the EC50 was below 0.5 µM.

In the case of `CCC(NC(=O)NNC(=O)c1ccc(-c2ccccc2)cc1)(C(F)(F)F)C(F)(F)F` [Example 101, 2-(1,1′-biphenyl-4-ylcarbonyl)-N-[1,1-bis(trifluoromethyl)propyl] hydrazinecarboxamide], the EC50 in assay [2] is 0.5 to 1 µM; in the assay with Candid-1 vaccine virus, 1000 to 5000 nM; in assay [3], below 0.5 µM; with VSV pseudotyped virus, above 5 µM; in assay [4], below 0.5 µM; in the assay with Tacaribe virus, below 500 nM. Moreover, the EC50 in assay [5] was below 0.5 µM.

Turning to `CCC(NC(=O)NNC(=O)c1cccc2ccccc12)(C(F)(F)F)C(F)(F)F` [Example 102, N-[1,1-bis(trifluoromethyl)propyl]-2-(1-naphthoyl)hydrazinecarboxamide], the EC50 is 1 to 5 µM in assay [2]; above 5000 nM with Candid-1 vaccine virus; below 0.5 µM in assay [3]; above 5 µM with VSV pseudotyped virus; 1 to 5 µM in assay [4]; below 500 nM in the assay on Tacaribe virus. The EC50 in assay [5] was below 0.5 µM.

As to `CCC(NC(=O)NNC(=O)c1ccccc1-c1ccccc1)(C(F)(F)F)C(F)(F)F` [Example 103], the EC50 in assay [2] is 1 to 5 µM; with Candid-1 vaccine virus, 1000 to 5000 nM; in assay [3], below 0.5 µM; in the assay on VSV pseudotyped virus, above 5 µM; in assay [4], below 0.5 µM; with Tacaribe virus it was 500 to 1000 nM. The EC50 in assay [5] is below 0.5 µM.

Turning to `CCC(NC(=O)NNC(=O)c1ccc(C)cc1)(C(F)(F)F)C(F)(F)F` [Example 104, N-[1,1-bis(trifluoromethyl)propyl]-2-(4-methylbenzoyl)hydrazinecarboxamide], the 50% effective concentration (EC50) is 1 to 5 µM in assay [2]; above 5000 nM in the assay with Candid-1 vaccine virus; below 0.5 µM in assay [3]; above 5 µM with VSV pseudotyped virus; below 0.5 µM in assay [4]; 500 to 1000 nM with Tacaribe virus. Moreover, the EC50 in assay [5] is below 0.5 µM.

For `CCC(NC(=O)NNC(=O)c1ccc2ccccc2c1)(C(F)(F)F)C(F)(F)F` [Example 105, N-[1,1-bis(trifluoromethyl)propyl]-2-(2-naphthoyl)hydrazinecarboxamide], the EC50 is 1 to 5 µM in assay [2]; 1000 to 5000 nM with Candid-1 vaccine virus; below 0.5 µM in assay [3]; above 5 µM in the assay with VSV pseudotyped virus; below 0.5 µM in assay [4]; below 500 nM in the assay with Tacaribe virus. For the same compound, the EC50 in assay [5] is below 0.5 µM.

For `CCC(NC(=O)NNC(=O)c1cc(OC)ccc1OC)(C(F)(F)F)C(F)(F)F` [Example 106, N-[1,1-bis(trifluoromethyl)propyl]-2-(2,5-dimethoxybenzoyl)hydrazinecarboxamide], the EC50 in assay [2] is above 5 µM; in the assay on Candid-1 vaccine virus, 1000 to 5000 nM; in assay [3], below 0.5 µM; in the assay with VSV pseudotyped virus it was above 5 µM; in assay [4], below 0.5 µM; with Tacaribe virus it was below 500 nM. Further, the EC50 in assay [5] is below 0.5 µM.

`CCC(NC(=O)NNC(=O)c1ccc(Cl)c(Cl)c1)(C(F)(F)F)C(F)(F)F` [Example 107, N-[1,1-bis(trifluoromethyl)propyl]-2-(3,4-dichlorobenzoyl)hydrazinecarboxamide]: the EC50 was 1 to 5 µM in assay [2]; 1000 to 5000 nM in the assay on Candid-1 vaccine virus; below 0.5 µM in assay [3]; above 5 µM with VSV pseudotyped virus; below 0.5 µM in assay [4]; 500 to 1000 nM in the assay on Tacaribe virus. In addition, the EC50 in assay [5] is below 0.5 µM.

Regarding `CCC(NC(=O)NNC(=O)c1ccc(Br)cc1)(C(F)(F)F)C(F)(F)F` [Example 108, N-[1,1-bis(trifluoromethyl)propyl]-2-(4-bromobenzoyl)hydrazinecarboxamide], the EC50 is 1 to 5 µM in assay [2]; 1000 to 5000 nM in the assay with Candid-1 vaccine virus; below 0.5 µM in assay [3]; above 5 µM in the assay with VSV pseudotyped virus; below 0.5 µM in assay [4]; 500 to 1000 nM in the assay with Tacaribe virus. Further, the EC50 in assay [5] is below 0.5 µM.

`CCC(NC(=O)NNC(=O)c1ccc(C(C)C)cc1)(C(F)(F)F)C(F)(F)F` [Example 109, N-[1,1-bis(trifluoromethyl)propyl]-2-(4-isopropylbenzoyl)hydrazinecarboxamide]: the EC50 in assay [2] is above 5 µM; in the assay on Candid-1 vaccine virus, 1000 to 5000 nM; in assay [3] it was below 0.5 µM; with VSV pseudotyped virus it was above 5 µM; in assay [4], below 0.5 µM; in the assay on Tacaribe virus, below 500 nM. Also, the EC50 in assay [5] was below 0.5 µM.

On to `CCC(NC(=O)NNC(=O)c1cc(C)cc(C)c1)(C(F)(F)F)C(F)(F)F` [Example 110, N-[1,1-bis(trifluoromethyl)propyl]-2-(3,5-dimethylbenzoyl)hydrazinecarboxamide], for which the EC50 in assay [2] is 1 to 5 µM; in the assay with Candid-1 vaccine virus, 1000 to 5000 nM; in assay [3], below 0.5 µM; in the assay with VSV pseudotyped virus it was above 5 µM; in assay [4], 0.5 to 1 µM; with Tacaribe virus, below 500 nM. Moreover, in assay [5], the EC50 was below 0.5 µM.

On to `CCC(NC(=O)NNC(=O)c1c(C)cc(C)cc1C)(C(F)(F)F)C(F)(F)F` [Example 111, N-[1,1-bis(trifluoromethyl)propyl]-2-(mesitylcarbonyl)hydrazinecarboxamide], for which the EC50 in assay [2] is 1 to 5 µM; in assay [3], below 0.5 µM; in the assay on VSV pseudotyped virus it was above 5 µM; in assay [4], 0.5 to 1 µM; in the assay on Tacaribe virus, 1000 to 5000 nM; in assay [5], below 0.5 µM.
